Data from US4139538A, “Oxazolidinones as therapeutic agents” (priority 1975, dated 1979).

Columns and labels:
[1] = maximum electric shock test (MES), protection against tonic extensor cramp; assay type: in vivo, mice
[2] = minimum pentetrazole shock test (min PS), protection against clonic cramp; assay type: in vivo, mice; conditions: Mus musculus, po, 1 h, read-out: Anticonvulsive activity Min PS ED50;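 further: albino NMRI mice, oral dosing, clonic seizures provoked 60 min later by subcutaneous pentetrazole 70 mg/kg, ED50 is the dose protecting half of animals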
[3] = prolongation of sodium hexobarbitone narcosis; assay type: in vivo, mice; conditions: for ED (200%): Mus musculus, po, 1 h, mice, sodium hexobarbitone 70 mg/kg i.v., 60 minutes after p.o. administration, extension of the narcosis period to 200%, read-out: Prolongation of narcosis ED200; for effectiveness in prolonging sleep compared with known hypnotics and tranquillizers: versus e.g. chlorzoxazone and meprobamate
[4] = paralysis: loss of the postural and balancing reflexes (lying down); assay type: in vivo, mice; conditions: for ED50: Mus musculus, po, read-out: Paralysis ED50; for effectiveness in relaxing the muscle system compared with known hypnotics and tranquillizers: versus e.g. chlorzoxazone and meprobamate
[5] = in vivo; conditions: mouse, po
[6] = administration of a tablet to a human suffering from motor restlessness, with electroencephalogram; assay type: in vivo; conditions: 50 mg
Experimental: A tablet produced in accordance with Example 75 consisting of 50 mg. of the active compound according to Example 43 and the equivalent amount of the other ingredients was administered to a human suffering from motor restlessness.

[7] = Mus musculus, po, 1 h; read-out: Anticonvulsive activity MES ED50
[8] = mice, 70 mg/kg pentetrazole s.c., 60 minutes after p.o. administration, protection in 50% of the animals
[9] = mice, p.o., lying down in 50% of the animals
[10] = MES and min PS test models; versus trimethadione and dipropyl acetate
[11] = Mus musculus, po, 1 h, read-out: Anticonvulsive activity MES ED50

SMILES | ED50 [1, 7] [mg/kg] | ED50 [2, 8] [mg/kg] | ED (200%) [3] [mg/kg] | ED50 [4, 9] [mg/kg] | LD50 at 168 h [5] [mg/kg] | anticonvulsive effect compared with conventional antiepileptics [1, 10] | ED50 [1, 11] [mg/kg] | ED50 [2] [mg/kg] | ED50 [4] [mg/kg] | effectiveness in prolonging sleep compared with known hypnotics and tranquillizers [3] | effectiveness in relaxing the muscle system compared with known hypnotics and tranquillizers [4] | electroencephalogram findings [6] | indications of a shallow sleep phase in the electroencephalogram ([6]; 5 hours after administration) | effect reported by the patient ([6]; within a period of several minutes)
CCCC(O)(CCC)C1NC(=O)OC1c1ccccc1 (stereo not shown) [Example 41] | 147 | > 464 | 65 | > 1000 | > 1000 | – | – | – | – | – | – | – | – | –
CC1(c2ccccc2)OC(=O)NC1CCl (stereo not shown) [Example 67, 4-Chloromethyl-5-methyl-5-phenyl oxazolidin-2-one] | – | – | – | – | > 1000 | superior | 93 | 55 | 1000 | – | – | – | – | –
CCC(O)(c1ccccc1)C1NC(=O)OC1C (stereo not shown) [Example 18, 4-[-1-(1-Hydroxy-1-phenyl)-propyl]-5-methyl oxazolidin-2-one] | 200 | 200 | 450 | > 1000 | > 1000 | – | – | – | – | – | – | – | – | –
O=C1NC(CBr)C(c2ccccc2)O1 (stereo not shown) [Example 73] | – | – | – | – | > 1000 | – | 65 | 430 | > 1000 | – | – | – | – | –
CCC1(c2ccccc2)C(=O)NC(=O)NC1=O [Na-phenocarbital, reference compound] | – | – | – | – | 320 | – | 11 | 30 | 150 | – | – | – | – | –
CCCC(C)(COC(N)=O)COC(N)=O [Meprobamate, reference compound] | – | – | – | – | 1000 | – | 115 | 150 | 800 | – | – | – | – | –
CCC(O)(c1ccc(Cl)cc1)C1COC(=O)N1 (stereo not shown) [Example 60] | 175 | > 464 | 70 | 1000 | > 1000 | – | – | – | – | – | – | – | – | –
CCCC(CCC)C(=O)O [Dipropylacetate, reference compound] | – | – | – | – | > 1000 | – | 185 | 450 | 1000 | – | – | – | – | –
CC1(CO)NC(=O)OC1(C)c1ccccc1 (stereo not shown) [Example 6] | 165 | > 464 | 1000 | 1000 | > 100 | – | – | – | – | – | – | – | – | –
C=CCC(O)(CC=C)C1NC(=O)OC1C (stereo not shown) [Example 34] | 150 | > 464 | 90 | 1000 | > 1000 | – | – | – | – | – | – | – | – | –
CN1C(=O)OC(c2ccccc2)C1C(C)(C)O (stereo not shown) [Example 38] | 165 | 640 | 115 | 464 | > 1000 | – | – | – | – | distinctly more effective | distinctly more effective | – | – | –
CC(O)C1NC(=O)OC1c1ccccc1 (stereo not shown) [Example 5, 4-[1-(1-Hydroxyethyl)]-5-phenyl oxazolidin-2-one] | 75 | 150 | 510 | > 1000 | > 1000 | superior | – | – | – | – | – | – | – | –
O=C1NC(C(O)(c2ccccc2)c2cccc(Cl)c2)CO1 (stereo not shown) [Example 49] | 200 | > 464 | 90 | > 1000 | > 1000 | – | – | – | – | – | – | – | – | –
CCC(O)(c1ccccc1)C1COC(=O)N1C (stereo not shown) [Example 64] | 300 | > 464 | 110 | 650 | 800 | – | – | – | – | distinctly more effective | distinctly more effective | – | – | –
C=CCC(O)(c1ccccc1)C1COC(=O)N1 (stereo not shown) [Example 58] | 200 | 300 | 300 | 1000 | > 1000 | – | – | – | – | – | – | – | – | –
C=CCN1C(=O)OC(c2ccccc2)C1C(C)(C)O (stereo not shown) [Example 39] | 145 | > 464 | 130 | > 1000 | 1000 | – | – | – | – | – | – | – | – | –
O=C1NC(CCl)C(c2ccccc2)O1 (stereo not shown) [Example 72] | – | – | – | – | > 1000 | – | 75 | 540 | > 1000 | – | – | – | – | –
O=C1NC(=O)C(c2ccccc2)(c2ccccc2)N1 [Diphenylhydantoin, reference compound] | 10 | – | 50 | – | – | – | – | – | – | – | – | – | – | –
C=CCC(O)(CC=C)C1NC(=O)OC1c1ccccc1 (stereo not shown) [Example 43] | 25 | > 464 | 15 | 225 | 1000 | – | – | – | – | distinctly more effective | distinctly more effective | characteristic signs of a sedation with a decrease of effectiveness in the alpha and beta band and a change of the range of main activity to the lower frequency range | clearly increased | muscle relaxing, tiring and ataraktic sedation
CCCC(O)(c1ccccc1)C1COC(=O)N1 (stereo not shown) [Example 65] | 170 | 175 | 155 | > 1000 | > 1000 | – | – | – | – | – | – | – | – | –
CN1C(=O)OC(C)(C)C1=O [Trimethadione, reference compound] | 450 | 240 | 660 | > 1000 | > 1000 | – | – | – | – | – | – | – | – | –
CCC(O)(CC)C1NC(=O)OC1c1ccccc1 (stereo not shown) [Example 40] | 75 | 430 | 165 | 1000 | > 1000 | – | – | – | – | – | – | – | – | –
CC(C)(O)C1NC(=O)OC1c1ccccc1 (stereo not shown) [Example 37] | 59 | 130 | 650 | 1000 | > 1000 | superior | – | – | – | – | – | – | – | –
O=C1NC(C(O)c2ccc(Cl)cc2)CO1 (stereo not drawn) [Example 4, 4-(α-Hydroxy-p-chlorobenzyl)-oxazolidin-2-one] | 125 | 140 | 160 | > 1000 | > 1000 | superior | – | – | – | – | – | – | – | –
CC(O)(c1ccc(Cl)cc1)C1COC(=O)N1 (stereo not shown) [Example 59] | 165 | > 464 | 110 | > 1000 | > 1000 | – | – | – | – | – | – | – | – | –
CCCC(O)(CCC)C1COC(=O)N1 (stereo not shown) [Example 45] | 120 | 430 | 210 | 1000 | > 1000 | – | – | – | – | – | – | – | – | –
CCC(O)(c1ccccc1)C1COC(=O)N1 (stereo not shown) [Example 54] | 115 | 85 | 50 | 800 | > 1000 | superior | – | – | – | distinctly more effective | distinctly more effective | – | – | –
